Results on four molecules are retold here after publication PMC6149849, “Cymantrenyl-Nucleobases: Synthesis, Anticancer, Antitrypanosomal and Antimicrobial Activity Studies” (Molecules : A Journal of Synthetic Chemistry and Natural …, 2017).

The subject of data set [1] is bloodstream forms of T. brucei clone 427-221a. The conditions noted are these: cited from earlier work.
In data set [2] the test system is Clinical S. aureus (MSSA) 26/11. Nature of the data set: Antibacterial liquid microdilution, clinical isolate. The class given is cell-based, Staphylococcus aureus. On the procedure: (§1) This lack of activity against E. coli can be probably explained by an impeded cellular uptake of the compounds through the Gram-negative cell wall that consists of two layers and effective protein efflux pump systems. The antibacterial activities of 1 and C were further tested against four clinical isolates of S. aureus and two clinical isolates of S. epidermidis (Table 4).
(§2) The antibacterial activity of CymH, 1–7 and C and the reference drugs penicillin G and polymyxin B was tested by the liquid microdilution method under standard conditions using twofold dilution series, as described in the Clinical and Laboratory Standards Institute (CLSI), reference method M07-A8, and expressed as minimal inhibitory concentration (MIC) values. A panel of Gram-positive bacterial strains, S. aureus ATCC® 29213 (sensitive to methicillin, (MSSA)), S. aureus ATCC® 43300 (resistant to methicillin, (MRSA)), S. aureus ATCC 700787™ (intermediate to vancomycin, (VISA)), and S. epidermidis ATCC 12228™, and one Gram-negative, strain E. coli ATCC BAA-198™ (ESBL) were used. In addition, four clinical isolates of S. aureus (MSSA and MRSA) and two clinical isolates of S. epidermidis that were collected from different patients at the Medical University of Warsaw, Poland, were also tested. The bacterial cells were cultivated on tryptic soy agar (TSA) and nutrient agar (NA), according to ATCC recommendations. All of the strains were incubated at 37 °C. Tested compounds were dissolved in DMSO and then serially diluted twofold with cation-adjusted Mueller-Hinton broth (CAMHB). Then, 95 µL of the dilutions were dispensed into microdilution sterile plates (Mar-Four), followed by the addition of 5 µL of bacteria inoculum containing 5 × 10^4 CFU/mL. The final concentrations of the compounds ranged from 512 to 2 µg/mL. Each compound was tested in triplicate, and Penicillin G (8–0.15 µg/mL) and Polymyxin B (256–0.0625 µg/mL) were used as controls. The plates were incubated at 37 °C for 18 to 24 h depending on the bacterial strain. Thereafter, the absorbance was measured at λ = 540 nm and λ = 595 nm using a Spectrostar Omega microplate reader (BMG Labtech, Offenburg, Germany). The MIC value was defined as the lowest concentration of a compound that reduced the growth by 100%.
Background: In broth dilution the organism is exposed to a series of concentrations in liquid medium.

The test system of data set [3] is Clinical S. aureus (MSSA) 30/11. The description is as above. The class given is cell-based, Staphylococcus aureus. On the procedure: as §1, §2
The subject of data set [4] is Clinical S. aureus (MRSA) 31/12. Described as above. The class given is cell-based, Staphylococcus aureus. Here is the method:
as §1, §2

Data set [5] deals with Clinical S. aureus (MRSA) 44/12. The data set is described as above. In kind it is cell-based, Staphylococcus aureus. Here is the method:
as §1, §2

Data set [6] has as its system Clinical S. epidermidis (MSSA) 37/12. The description is as above. In kind it is cell-based, Staphylococcus epidermidis. On the procedure:
as §1, §2

Data set [7] deals with Clinical S. epidermidis (MSSA) 43/12. The description is as above. The class given is cell-based, Staphylococcus epidermidis. Here is the method: as §1, §2
The subject of data set [8] is human myeloid leukemia HL-60 cells. The settings on record: cited from earlier work.
In data set [9] the test system is Gram-positive bacterial strains, including MRSA and VISA pathogens. Kind of data set: Antibacterial activity over the panel of strains (summary statements). The class given is cell-based. The settings on record: for antibacterial activity in words: reference bacterial strains; for antibacterial activity (range over strains): summary range. Here is the method: Organometallic compounds play an increasingly important role in the search for new antibacterial agents. We, therefore, thought to investigate also the bactericidal activity of the newly synthesized cymantrenes 1–7, compound C and CymH. The antibacterial activity of the compounds was tested against Gram-positive methicillin-sensitive Staphylococcus aureus (MSSA), methicillin-resistant S. aureus (MRSA), vancomycin-intermediate S. aureus (VISA), S. epidermidis, and Gram-negative Escherichia coli bacterial strains, and expressed as minimal inhibitory concentration (MIC) values (Table 3).
as §2

A further data set concerns S. aureus ATCC 25923. Kind of data set: Effect on bacterial morphology (SEM) with MIC and MBC. The class given is cell-based, Staphylococcus aureus. On the procedure: In order to elucidate the bactericidal mechanism of action of cymantrenes, the effect of compound 1 on the morphology of S. aureus ATCC 25923 was exemplary studied by scanning electron microscopy (SEM) (Figure 9).
The effect of compound 1 on bacterial morphology was studied by SEM, as previously described. Briefly, samples of S. aureus ATCC 25923 (10^5 CFU/mL) were centrifuged (600× g, 5 min) and resuspended in growth medium containing compound 1 at concentration of 48 or 64 µg/mL. After incubation for 24 h at 37 °C, the cells were washed twice with PBS (0.1 × PBS), fixed with 2.5% glutaraldehyde (overnight), filtered (0.2 μm, pore size cutoff), and subsequently dehydrated in a series of ethanol washes (30%, 50%, 70%, 80%, 90% and 100%; twice for 15 min). The solvent was then evaporated and the samples were coated with a thin layer of platinum (15 nm). SEM images were recorded using a SEM Inspect F50 (FEI Co., Eindhoven, The Netherlands) at an energy range of 10–15 keV.

In general, GI50 refers to the concentration giving 50% growth inhibition. With `Nc1ncnc2c1ncn2CCC(O)[C]12[CH]3[CH]4[CH]5[CH]1[Mn]45321[P](c2ccccc2)(c2ccccc2)CC[P]1(c1ccccc1)c1ccccc1.[C-]#[O+]` (racemic) [Compound C], in data set [1] (HL-60 / T. brucei), the “MIC and GI50 ratios of cytotoxic to trypanocidal activities” value was 7–13; the “Selectivity GI50 Ratio” value is recorded as 13.1; the “Selectivity MIC Ratio” value was 10. In data set [1], the GI50 is 1.67 ± 0.37 µM and the “T. brucei MIC” value was 10 µM. The “MIC, Clinical S. aureus (MSSA) 26/11” value in data set [2] is 32 µg/mL. The “MIC, Clinical S. aureus (MSSA) 30/11” value in [3] was 32 µg/mL. In addition, the “MIC, Clinical S. aureus (MRSA) 31/12” value in data set [4] turned out to be 32 µg/mL. Besides, the “MIC, Clinical S. aureus (MRSA) 44/12” value in data set [5] amounted to 32 µg/mL. For the same molecule, the “MIC, Clinical S. epidermidis (MSSA) 37/12” value in [6] came to 16 µg/mL. For the same molecule, the “MIC, Clinical S. epidermidis (MSSA) 43/12” value in [7] was found to be 16 µg/mL. Besides, in data set [8], the GI50 was 21.8 ± 8.6 µM and the “HL-60 MIC” value was 100 µM. In addition, in data set [9], the “antibacterial activity in words” value is “remarkable potency against all of the Gram-positive bacterial strains” and the “antibacterial activity (range over strains)” value lay in the range of 8 to 64 µg/mL.
For the molecule `O=C(CCn1cc(F)c(=O)[nH]c1=O)[C]12[CH]3[CH]4[CH]5[CH]1[Mn]4532.[C-]#[O+].[C-]#[O+].[C-]#[O+]` (stereo not shown) [Compound 1], the “MIC, Clinical S. aureus (MSSA) 26/11” value in data set [2] worked out at 32 µg/mL. Further, in data set [3], the “MIC, Clinical S. aureus (MSSA) 30/11” value stood at 64 µg/mL. Besides, the “MIC, Clinical S. aureus (MRSA) 31/12” value in data set [4] is 64 µg/mL. The “MIC, Clinical S. aureus (MRSA) 44/12” value in data set [5] is 32 µg/mL. Besides, the “MIC, Clinical S. epidermidis (MSSA) 37/12” value in data set [6] came out at 4 µg/mL. In data set [7], the “MIC, Clinical S. epidermidis (MSSA) 43/12” value was determined as 8 µg/mL. In addition, in [9], the “antibacterial activity in words” value is given as “remarkable potency against all of the Gram-positive bacterial strains” and the “antibacterial activity (range over strains)” value lay in the range of 8 to 64 µg/mL. Further, in the data set on S. aureus ATCC 25923, the “MIC, S. aureus ATCC 25923” value is given as 32 µg/mL and the “minimal bactericidal concentration; MBC, S. aureus ATCC 25923” value came out at 128 µg/mL. Moreover, the “bacterial morphology by SEM” value in the data set with S. aureus ATCC 25923 (48 µg/mL and 64 µg/mL, 24 h) is “severe morphological alterations in cell dimensions and structure, as well as the disruption of the outer envelope”.
Regarding `CCC(=O)[C]12[CH]3[CH]4[CH]5[CH]1[Mn]4532.[C-]#[O+].[C-]#[O+].[C-]#[O+]` (stereo not shown) [Compound 7, propionylocymantrene], the “antibacterial activity in words” value in [9] was “not active”.
For `O=[C]=[Mn](=[C]=O)(=[C]=O)[CH]1C=CC=C1` [CymH, tricarbonyl(η^5-cyclopentadienyl)manganese, reference compound], in data set [9], the “antibacterial activity in words” value is given as “not active”.
